Results on 10 molecules are retold here after patent US4393178A, “Fast crystallizing polyester compositions” (priority 1979, dated 1983).

Values joined by “and” are separate entries in the source; they are usually repeats but may differ in a detail not shown here. Equal values may be shown once. Read-outs that look alike come from different tables or passages of the source.

Data set [1] in a line: Half-crystallisation time (t1/2), isothermal DSC. The class given is physicochemical. How it is done: A DSC 2 Perkin Elmer scanning calorimeter was used.
10 mg of the sample of polymer material are placed in a capsule and introduced into the apparatus, wherein the sample is quickly heated to a temperature of 290° C. at which it is maintained during 1 minute.
The molten polymer material is then very quickly cooled by means of liquid air (at a rate of 320° C. per minute) until the crystallisation temperature is reached.
The crystallisation isotherm is registered on a temperature-time graph and the peak appearing on the registered isotherm is taken as the half-crystallisation time (t1/2).

Data set [2] is described as follows: Degradation constant K (melt degradation performance). The class given is physicochemical. Also on record: unit not given here. Conditions: 1% salt in PET, 2-roll mill 270 °C 5 min; molten state 290 °C. As to the method:
The melt degradation performance is a measure of the extent of degradation under molten conditions. A convenient method of quantifying the performance is by measuring the "K value". A method for determining this value in the molten state using an Instron Capillary rheometer is given in a paper by J. Devaux et al in Makromol.
This method is carried out on samples prepared by reacting the salt with the polyester on a 2 roll-mill at a temperature above the melting point of the polyester for 5 minutes and then pressing the product obtained into a 2 mm thick sheet using the same temperature for 3 minutes before cooling to room temperature. The method is described for polyethylene terephthalate but can be readily adapted for other polyesters.
For polyethylene terephthalate the K value in the presence of salt should be less than 60.

Data set [3] is described as follows: ΔT = Tc(cooling) - Tn(heating), DSC. Type of data set: physicochemical. Conditions: 1% salt in PET, 2-roll mill 270 °C 5 min; 10 °C/minute. How it is done: An alternative method for assessing the effectiveness of nucleation of an additive is to compare the difference between the value of the crystallisation peak on cooling (Tc) with that on heating (Tn) for a composition containing an ionisable salt. The value obtained from this comparison, Tc(cooling) -Tn(heating) is termed ΔT. […] Samples of polyester together with 1% of the salt under test were mixed in a 2-roll mill at 270° C. for 5 minutes. The sample produced was pressed into 2 mm thick sheets at 270° C. for 3 minutes and then cooled to room temperature. 10 mg of the sample was placed in a capsule and rapidly heated to 290° C. After maintaining this temperature for 1 minute the capsule was quenched in water. The crystallisation peak temperatures on heating (Tn) and cooling (Tc) were determined using heating and cooling rates of 10° C./minute on a Perkin Elmer DSC 2 machine.

Data set [4] can be described thus: Solubility parameter δ of the acid.
The conditions of data set [5]: cited from earlier work.
The nature of data set [6]: Crystallisation peak temperature on heating (Tn), DSC. The class given is physicochemical. The conditions noted are these: for Tn(composition)-Tn(polyester): PET I.V. 0.73 + 1% salt, 2-roll mill 300 °C 2 min, 10 °C/minute. As to the method:
In one such DSC technique the crystallisation peak temperature difference, Tn(composition)--Tn(polyester) is determined by measuring the crystallisation peak temperatures on heating for the composition in comparison with the polyester of the composition not containing the ionisable salt. The detailed procedure is as follows. Compositions were prepared from the polyester and the additive by mixing on a 2-roll mill at 300° C. for 2 minutes. The sample was taken from the mill and pressed into a film in a compression moulding machine. 10 mg samples of the composition were placed in a capsule, rapidly heated to 290° C. and maintained at that temperature for 1 minute. The capsule was then dropped into water to quench the polymer and prevent crystallisation. The sample was then placed in a Perkin Elmer DSC 2 machine and heated at a rate of 10° C./minute until reaching a temperature of 290° C. The crystallisation peak temperature observed on this heating cycle is recorded and compared with the value for the polyester not containing the additive.
Samples of polyethylene terephthalate (I.V. =0.73) containing 1% of the salts listed in Table 2 were prepared by compounding at 300° C. on a 2-roll mill for 2 minutes. The samples were evaluated to determine Tn(composition-Tn(polyester), the total number of end groups, the number of carboxylate groups and the number of hydroxyl and carboxyl groups.
The salts listed in Table 3 were deposited from solution on the surface of polyethylene terephthalate chip to give a concentration of 1% by weight of salt. The product was dried under vcuum at 96° C. for 3 hours. The compositions were pressed into film using a temperature of 280° C. for 1 minute. The DSC measurements were made after quenching from the melt to prevent crystallisation and using a heating rate of 16° C./minute.
1% by weight of the sodium salt of saccharin was deposited on the surface of granules of a polyethylene terephthalate homopolymer of I.V. =0.73 by evaporating an aqueous solution of the salt from the granules by drying at 96° C. under vacuum for 3 hours. The granules obtained were compression moulded into film by pressing at 280° C. for 60 second. The film was used for measurements of Tn at a heating rate of 16° C./minute.
The effect of the salts listed in Table 4 was determined by taking granules of a polymer of poly(ethylene terephthalate) homopolymer having an intrinsic viscosity of 0.73 and evaporating a solution of the salt in methanol or water from the surface of the granules by drying at 96° C. under vacuum for 3 hours. The proportions of polymer and solution used were such as to give a concentration of 1% of salt by weight of the final dry composition. The granules obtained were compression-moulded into film at 280° C. for various periods of time. The film was used for measurement of Tn as hereinbefore described.
Two samples of polyethylene terephthalate chip (I.V. =0.73) were coated from solution with 1% of the sodium salt of o-hydroxybenzoic acid and the disodium salt of the same acid respectively. After drying for 3 hours in a vacuum oven at 95° C. films were prepared by pressing the products for 1 minute at 280° C.

The next data set in a line: End group determination. Conditions: PET I.V. 0.73 + 1% salt, 2-roll mill 300 °C 2 min. The class given is physicochemical. As to the method:
The numbers of hydroxyl and carboxyl groups were also determined according to the procedure given in this paper.
[…] The samples were evaluated to determine Tn(composition-Tn(polyester), the total number of end groups, the number of carboxylate groups and the number of hydroxyl and carboxyl groups.

Setting [7] is: 110 °C, 1% salt in PET, 2-roll mill 270 °C 5 min, after melting 1 minute at 290 °C.
[8] abbreviates: 120 °C, 1% salt in PET, 2-roll mill 270 °C 5 min, after melting 1 minute at 290 °C.
[9] abbreviates: acid from which the salt is derived, in water.

`O=C(O)c1c(O)cc(O)cc1O` [2,4,6-dihydroxy benzoic acid]: the “t1/2 (sec) 110° C.” value in data set [1] (setting [7]) was 110 s. The “t1/2 (sec) 120° C.” value in data set [1] (setting [8]) was 50 s. Further, the K in data set [2] is on record as 37. Besides, the ΔT in data set [3] came out at 97 °C. Moreover, in data set [4] (product for the acid), the “δ × pKH.sbsb.2O” value turned out to be 26. Further, the pKH.sbsb.2O in data set [5] (setting [9]) is listed as 1.7.
Take `O=C(O)c1ccc(O)cc1O` [2,4-dihydroxy benzoic acid]: the “t1/2 (sec) 110° C.” value in data set [1] (setting [7]) is 95 s. Also, in data set [1] (setting [8]), the “t1/2 (sec) 120° C.” value worked out at 45 s. Further, in data set [2], the K was 35. Also, the ΔT in data set [3] stood at 99 °C. In data set [4] (product for the acid), the “δ × pKH.sbsb.2O” value is on record as 47. Besides, the pKH.sbsb.2O in data set [5] (setting [9]) was 3.2.
On to `O=C(O)c1cc(O)ccc1O` [2,5-dihydroxy benzoic acid], for which, in data set [1], the “t1/2 (sec) 110° C.” value was 85 s and the “t1/2 (sec) 120° C.” value was 48 s. Further, the K in data set [2] stood at 22. In data set [3], the ΔT is 103 °C. Further, the pKH.sbsb.2O in data set [5] (setting [9]) is 3.
Regarding `O=C(O)c1cc([N+](=O)[O-])ccc1Cl` [2-chloro-5-nitrobenzoic acid], in data set [1] (setting [7]), the “t1/2 (sec) 110° C.” value was 65 s. Besides, in data set [1] (setting [8]), the “t1/2 (sec) 120° C.” value came out at 40 s. In addition, the K in data set [2] was 52. In data set [3], the ΔT turned out to be 108 °C. Moreover, the “δ × pKH.sbsb.2O” value in data set [4] (product for the acid) worked out at 29. In data set [5] (water), the pKH.sbsb.2O is 2.2.
As for `O=C(O)c1cc([N+](=O)[O-])cc([N+](=O)[O-])c1` [3,5-dinitrobenzoic acid], the “t1/2 (sec) 110° C.” value in data set [1] (setting [7]) turned out to be 85 s. Besides, the “t1/2 (sec) 120° C.” value in data set [1] (setting [8]) was determined as 45 s. The K in data set [2] is recorded as 44. Besides, in data set [3], the ΔT turned out to be 102 °C. Also, the “δ × pKH.sbsb.2O” value in data set [4] (product for the acid) turned out to be 38. For the same molecule, the pKH.sbsb.2O in data set [5] (setting [9]) was 2.8.
Take `O=S(=O)(O)c1ccccc1` [Sodium benzene sulphonate, reference compound]: the Tn in data set [6] was 146 °C and 141.5 °C. In addition, in data set [5] (water), the “Dissociation Constant” value is given as 2 × 10^-1.
Consider `O=C(O)c1cccc(Cl)c1` [meta-chlorobenzoic acid], for which, in data set [1], the “t1/2 (sec) 110° C.” value is 63 s and the “t1/2 (sec) 120° C.” value amounted to 40 s. Further, the K in data set [2] is 31. In addition, the ΔT in data set [3] was 107 °C. Also, in data set [4] (product for the acid), the “δ × pKH.sbsb.2O” value is 47. Moreover, the pKH.sbsb.2O in data set [5] (setting [9]) was 3.8.
With `O=C(O)c1cccc([N+](=O)[O-])c1` [meta-nitrobenzoic acid], in data set [1], the “t1/2 (sec) 110° C.” value came to 65 s and the “t1/2 (sec) 120° C.” value came out at 45 s. For the same molecule, the K in data set [2] is recorded as 20. In addition, the ΔT in data set [3] was 106 °C. In addition, in data set [4] (product for the acid), the “δ × pKH.sbsb.2O” value came to 30. The pKH.sbsb.2O in data set [5] (water) is 2.2.
In the case of `O=C(O)c1ccccc1` [sodium benzoate, reference compound], in data set [1], the “t1/2 (sec) 110° C.” value amounted to 90 s and the “t1/2 (sec) 120° C.” value came to 45 s. Besides, in data set [2], the K stood at 88. In addition, the ΔT in data set [3] is 99 °C. Moreover, the “δ × pKH.sbsb.2O” value in data set [4] is listed as 55. Also, the Tn in data set [6] (1% salt on PET I.V. 0.73 from solution, time in press 30 sec at 280 °C) is 115.5 °C. Also, in data set [6] (1% salt on PET I.V. 0.73 from solution, time in press 60 sec at 280 °C), the Tn turned out to be 117 °C. The “Tn(composition)-Tn(polyester)” value in data set [6] stood at 27 °C. Further, in “End group determination”, the “% of carboxylate end group” value is 9.6%, the “End Groups --COOH” value is on record as 44 moles × 10^-6 g^-1, the “End Groups --OH” value was 54 moles × 10^-6 g^-1 and the “End Groups Carboxylate” value was found to be 13 moles × 10^-6 g^-1. Further, the “End Groups Total from solution I.V.” value in the data set “End group determination” was 136 moles × 10^-6 g^-1.
As for `CC(C)(C)c1ccc(C(=O)[O-])cc1.[Na+]` [sodium para-tert-butylbenzoate, reference compound], in data set [1], the “t1/2 (sec) 110° C.” value was 150 s and the “t1/2 (sec) 120° C.” value is 55 s. In addition, in data set [2], the K came out at 109. The ΔT in data set [3] is 92.5 °C. In addition, the “δ × pKH.sbsb.2O” value in data set [4] (product for the acid) came out at 62. Besides, the “Tn(composition)-Tn(polyester)” value in data set [6] came out at 19 °C. Moreover, in “End group determination”, the “% of carboxylate end group” value came to 2.5%, the “End Groups --COOH” value was 83 moles × 10^-6 g^-1, the “End Groups --OH” value was determined as 56 moles × 10^-6 g^-1 and the “End Groups Carboxylate” value amounted to 4 moles × 10^-6 g^-1. Further, the “End Groups Total from solution I.V.” value in the data set “End group determination” is recorded as 157 moles × 10^-6 g^-1.
